Experimental data taken from US20110166156A1, “Prodrugs for the Treatment of Schizophrenia and Bipolar Disease” (Alkermes, Inc., priority 2010, published 2011).

Experiment: Pharmacokinetic evaluation of paliperidone prodrugs in rats, intramuscular administration (Study 1 and Study 2)
Assay type: in vivo, Sprague-Dawley rats
Settings: male rats, IM, milled crystalline suspension, plasma by LC-MS/MS; for Cmax: combined Study 1 and Study 2, compared in The FIGURE with the other prodrugs tested; for Tmax: combined Study 1 and Study 2, shown in The FIGURE
Method: Two PK studies were conducted using intramuscular (IM) administration in rats of water-insoluble paliperidone prodrugs and the results were combined in The FIGURE.
Animals: 18 Male Sprague-Dawley rats (Charles River Laboratories, Wilmington, Mass.) were used in the study. Three groups of 6 rats were used and are referred to in this study as Groups A, B and C. Rats were approximately 350-375 g at time of arrival. Rats are housed 2 per cage with ad libitum chow and water. Environmental conditions in the housing room: 64-67° F., 30% to 70% relative humidity, and 12:12-h light:dark cycle. All experiments were approved by the institutional animal care and use committee.
Pharmacokinetics study: Rats were dosed IM by means of a 23 gauge, 1 inch needle with 1 cc syringe 0.3 mL suspension was withdrawn from the vial containing the test compound in suspension. The rat was injected in the muscles of the hind limb after anesthesia with isoflurane. Blood samples were collected via a lateral tail vein after brief anesthesia with Isoflurane. A 27½ G needle and 1 cc syringe without an anticoagulant was used for the blood collection. Approximately 35 0 μL of whole blood was collected at each sampling time point of 6 hours, 24 hours and 2, 5, 7, 9, 12, 14, 21, 28, 35 days after administration. Once collected, whole blood was immediately transferred to tubes containing K2 EDTA, inverted 10-15 times and immediately placed on ice. The tubes were centrifuged for 2 minutes at >14,000 g's (11500 RPMs using Eppendorf Centrifuge 5417C, F45-30-11 rotor) at room temperature to separate plasma. Plasma samples were transferred to labeled plain tubes (MICROTAINER®) and stored frozen at <−70° C.
(§1) Data Analysis: Drug concentrations in plasma samples were analyzed by liquid chromatography-mass spectroscopy (LC-MS/MS) using appropriate parameters for each compound. Half-life of Paliperidone, maximal concentration (Cmax), time to maximal concentration (Tmax), and AUC were calculated by using WinNonlin version 5.2 software (Pharsight, St. Louis, Mo.).
Pharmacokinetics study: Rats were dosed IM by means of a 23 gauge, 1 in. needle with 1 cc syringe 0.3 mL suspension was withdrawn from the vial containing the test compound in suspension. The rat was injected in the muscles of the hind limb after anesthesia with isoflurane. Blood samples were collected via a lateral tail vein after brief anesthesia with Isoflurane. […]
as §1, with “Half-life,” for “Half-life of Paliperidone,”, “concentration,” for “concentration (Cmax),”, “concentration” for “concentration (Tmax),”, “Mo.). […]” for “Mo.).”

Row | SMILES | Cmax | Tmax
1 | CCCCCCCCCCCCCCCC(=O)OC1CCCn2c1nc(C)c(CCN1CCC(c3noc4cc(F)ccc34)CC1)c2=O (stereo not shown) [PP, Paliperidone Palmitate] | lower than that of the other compounds | delayed
2 | CCCCCCCCCCCCCCCC(=O)OCOC1CCCn2c1nc(C)c(CCN1CCC(c3noc4cc(F)ccc34)CC1)c2=O (stereo not shown) [Compound 157] | lower than that of the other compounds | delayed
